PubChem BioAssay (NCI)
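Cells were grown in 96-well plates and exposed to each compound for 48 hours at five concentrations; endpoints were interpolated linearly between bracketing concentrations, or set to the highest concentration if not reached. The concentration for 50% growth inhibition is given as GI50. TGI: concentration producing complete growth inhibition.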

Assays:
Assay in all cases: NCI-60 cell line screen, 48 h
SNB-75 CNS = tested on: SNB-75 CNS
HOP-62 NSCLC = tested on: HOP-62 NSCLC
COLO 205 colon = tested on: COLO 205 colon
SF-268 CNS = tested on: SF-268 CNS
IGROV1 ovarian = tested on: IGROV1 ovarian
RXF 393 renal = tested on: RXF 393 renal
MCF7 breast = tested on: MCF7 breast
CAKI-1 renal = tested on: CAKI-1 renal
SN12C renal = tested on: SN12C renal
A549 NSCLC = tested on: A549 NSCLC

Compound	TGI (SNB-75 CNS) [µM]	TGI (HOP-62 NSCLC) [µM]	TGI (COLO 205 colon) [µM]	TGI (SF-268 CNS) [µM]	TGI (IGROV1 ovarian) [µM]	TGI (RXF 393 renal) [µM]	TGI (MCF7 breast) [µM]	TGI (CAKI-1 renal) [µM]	TGI (SN12C renal) [µM]	TGI (A549 NSCLC) [µM]	GI50 (HOP-62 NSCLC) [µM]	GI50 (SN12C renal) [µM]	GI50 (RXF 393 renal) [µM]
COc1cccc(NC(=O)CC(=O)n2nc(-c3ccccc3)c(N=Nc3ccc(Cl)cc3)c2-c2ccccc2)c1	> 86.9	90.9	61.6	49.4	> 96.4	75.9	45.3	> 100	> 100	> 85.7	–	–	–
CC(C)OP(=O)(OC(C)C)C(C(C)C)N(C)C(N)=NC#N (stereo not drawn)	> 100	> 100	> 100	> 100	> 100	> 100	> 100	> 100	> 100	> 100	–	–	–
CCCC1=C(OC)C(=O)c2c(C)cc(Cl)nc2C1=O	20.1	29.9	22.1	27.2	30.3	20.2	6.17	21.7	9.62	26.9	–	–	–
O=c1c2ccccc2nc(N/N=C/c2ccc([N+](=O)[O-])cc2)n1-c1ccccc1	56.7	67.5	> 100	59.3	> 100	32.7	> 100	49.4	> 100	> 100	–	–	–
[N-]=[N+]=Nc1nc2ccccc2c(N=[N+]=[N-])c1Cl	> 100	> 100	> 100	> 100	> 100	> 100	> 100	> 100	> 100	> 100	–	–	–
Cc1cc2c(c(C(=O)NCC(=O)O)c1)Oc1c(cc(C)cc1C(=O)NCC(=O)O)S2	> 100	> 100	> 100	> 100	> 100	> 100	> 100	> 100	> 100	> 100	–	–	–
O=c1cc(-c2ccccc2)oc2c1ccc1[nH]c3ccccc3c(=O)c12	> 100	> 100	> 100	> 100	> 100	> 100	> 100	> 100	> 100	> 100	–	–	–
O=CC(O)C(O)C(O)C(O)COC(=O)NCCCCC(=O)C(F)(F)C(F)(F)C(F)(F)C(F)(F)C(F)(F)C(F)(F)C(F)(F)F (stereo not drawn)	59.5	62.8	61.7	93.5	> 100	62.4	34	> 100	> 100	> 100	–	–	–
CC/C=C/c1cc2c(cc1O)CCC1C2CC[C@@]2(C)C1CC[C@@H]2O (stereo partly drawn)	8.14	16.7	27.5	24.8	17.5	7.92	10.1	13.7	18.7	20	2.69	5.13	–
O=C1N2CCC[C@H]2CS1(=O)=O	41.2	32	28.9	42.7	34.7	21.7	21.8	18.2	29.1	47.3	–	–	–
Cc1cc(C)nc(NS(=O)(=O)c2ccc(NNc3c4ccccc4nc4c(C(=O)Nc5ccc(S(=O)(=O)Nc6cc(C)on6)cc5)cccc34)cc2)n1	86	> 100	> 100	81.3	> 100	> 100	> 100	> 100	> 100	> 100	–	–	–
Cc1ccc(N2C(=O)C3CSCN3C2=O)cc1 (stereo not drawn)	> 100	> 100	> 100	> 100	> 100	> 100	> 100	> 100	> 100	> 100	–	–	> 100
Clc1ccc(-c2nn3c(COc4cccc(OCc5nnc6sc(-c7ccc(Cl)cc7)nn56)c4)nnc3s2)cc1	73.5	> 100	82.9	> 100	> 100	77.6	27.2	48.8	29.1	73.2	–	–	–
CCOC(=O)CCc1cn2cc(Br)nc(OC)c2n1	> 100	> 100	> 100	> 100	> 100	> 100	> 100	> 100	> 100	> 100	–	–	–
O=C1Nc2cccc(Cl)c2/C1=C\c1c(-c2ccccc2)nc2n1CCS2	66.8	66.1	39.5	66.9	37.5	42.5	39.1	73.8	31.7	49.1	–	–	–
CC(C)[C@H](C)/C=C/[C@@H](C)C1CC[C@H]2[C@@]34C=C[C@]5(C[C@@H](O)CC[C@]5(C)[C@H]3CC[C@]12C)OO4 (stereo partly drawn)	> 100	> 100	> 100	> 100	> 100	> 100	> 100	55.3	79.7	> 100	–	–	–
C/C(=C\Cc1ccc(F)cc1)CCCCCC/C(C)=C/Cc1ccc(F)cc1	35	37.2	37.6	37.2	26.7	42.1	45.8	25.5	31.5	31.7	–	–	–
C=C(CN(CC)CC)C1(c2ccccc2)CC2(CCCC2)C(=O)O1 (stereo not drawn)	92.6	> 100	> 100	> 100	> 100	> 100	> 100	> 100	> 100	> 100	–	–	–
CCOC(=O)c1cc2c3c(c(C(C)=O)c(OC)c2[nH]1)N(C(=O)CC)CC3	57.1	56.9	41.8	36.6	30	37.2	40.4	35.9	42.9	38.7	–	–	–
